For the assay, the target named is mouse Asah2 (Mus musculus, UniProt Q9JHE3). In words: fluorogenic ceramidase activity assay. Type of assay: biochemical.

In general, IC50 refers to the concentration needed to halve the response being measured. Read a low IC50 as greater potency.

mouse Asah2, sequence (Q9JHE3 whole entry): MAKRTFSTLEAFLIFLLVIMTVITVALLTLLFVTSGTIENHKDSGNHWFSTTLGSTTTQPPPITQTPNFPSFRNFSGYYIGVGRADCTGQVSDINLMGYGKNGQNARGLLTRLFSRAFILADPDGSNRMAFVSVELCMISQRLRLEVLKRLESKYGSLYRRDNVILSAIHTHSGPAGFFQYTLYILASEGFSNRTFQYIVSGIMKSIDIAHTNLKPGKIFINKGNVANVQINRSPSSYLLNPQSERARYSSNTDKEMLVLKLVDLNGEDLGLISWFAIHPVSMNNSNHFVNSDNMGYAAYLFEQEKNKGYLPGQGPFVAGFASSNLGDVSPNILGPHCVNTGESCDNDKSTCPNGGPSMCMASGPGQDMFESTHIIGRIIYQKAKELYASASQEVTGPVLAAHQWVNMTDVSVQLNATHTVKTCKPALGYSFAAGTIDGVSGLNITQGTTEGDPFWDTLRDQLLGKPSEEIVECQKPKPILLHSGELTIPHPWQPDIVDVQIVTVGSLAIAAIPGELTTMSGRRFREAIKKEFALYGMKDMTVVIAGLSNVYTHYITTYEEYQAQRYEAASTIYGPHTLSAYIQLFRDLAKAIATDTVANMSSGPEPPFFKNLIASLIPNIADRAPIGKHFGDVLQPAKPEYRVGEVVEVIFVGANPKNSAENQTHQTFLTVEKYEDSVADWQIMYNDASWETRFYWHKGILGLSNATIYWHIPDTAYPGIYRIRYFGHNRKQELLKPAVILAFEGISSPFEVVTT

`O=c1nc(Nc2cccc(Cl)c2)oc2cc(Cl)oc(=O)c12` [NC06, 7-chloro-2-(3-chloroanilino)pyrano[3,4-e][1,3]oxazine-4,5-dione] had an IC50 of 30.2 µM.

The values are drawn from paper PMC7946776 (Journal of immunology (Baltimore, Md. : 1950), 2021).
